What was measured:
[1] = test system: DOCA-salt hypertensive rats; test: antihypertensive effect in DOCA-salt hypertensive rats; type: in vivo; settings: DOCA-salt hypertensive rat, 30 mg/kg p.o. in 3% corn starch
Method: The antihypertensive effect can be determined in desoxycorticosterone acetate (DOCA)-salt hypertensive rats. DOCA-salt hypertensive rats (280-380 g) are prepared by the standard method. Rats underwent a unilateral nephrectomy and one week later are implanted with silastic pellets containing 100 mg/kg of DOCA. The rats are maintained on 1% NaCl/0.2% KCl drinking water for three to five weeks until sustained hypertension is established. The antihypertensive activity is evaluated at this time. Two days before an experiment, the rats are anesthetized with methoxyflurane and instrumented with catheters in the femoral artery to measure arterial blood pressure. Forty-eight hours later, baseline arterial pressure and heart rate are recorded during a 1 hour period. The test compound (30 mg/kg p.o.) or vehicle is then administered and the same cardiovascular parameters are monitored for an additional 5 hours.

[2] = test system: plasma ANF; test: effect on rat plasma ANF concentration in ANF-infused conscious rats; type: in vivo, rat (male Sprague-Dawley); settings: about 1-10 mg/kg p.o., ANF infusion 450 ng/kg/min i.v.
Method: The effect of the compounds of the invention on rat plasma ANF concentration can be determined as follows:
Male Sprague-Dawley rats (275-390 g) are anesthetized with ketamine (150 mg/kg)/acepromazine (10%) and instrumented with catheters in the femoral artery and vein to obtain blood samples and infuse ANF, respectively. The rats are tethered with a swivel system and are allowed to recover for 24 hours before being studied in the conscious, unrestrained state.
In this assay, plasma ANF levels are determined in the presence and absence of NEP inhibition. On the day of study, all rats are infused continuously with ANF at 450 ng/kg/min. i.v. for the entire 5 hours of the experiment. Sixty minutes after beginning the infusion, blood samples for baseline ANF measurements are obtained (time 0) and the rats are then randomly divided into groups treated with the test compound or vehicle. Additional blood samples are taken 30, 60, 120, 180 and 240 minutes after administration of the test compound.
Plasma concentrations are determined by a specific radioimmunoassay. […] The supermatant is decanted and the pellets counted in a gamma counter. […] Plasma ANF levels are expressed as a percent of those measured in vehicle-treated animals which received ANF alone (450 ng/kg/min i.v.).

[3] = test system: ANF-induced natriuresis; test: potentiation of the natriuretic effect of ANF in anesthetized rats; type: in vivo, rat (male Sprague-Dawley); settings: rat, 30 mg/kg in polyethylene glycol 400, intraduodenally; ANF 1 μg/kg i.v. bolus
Method: The potentiation of the natriuretic effect of ANF can be determined as follows: Male Sprague-Dawley rats (280-360 g) are anesthetized with Inactin (100 mg/kg i.p.) and instrumented with catheters in the femoral artery, femoral vein and urinary bladder to measure arterial pressure, administer ANF and collect urine, respectively. A continuous infusion of normal saline (33 μl/min) is maintained throughout the experiment to promote diuresis and sodium excretion. The experimental protocol consists of an initial 15 minute collection period (designated as pre-control) followed by three additional collection periods. Immediately after completion of the pre-control period, test compound or vehicle is administered; nothing is done for the next 45 minutes. […] At the conclusion of this period, ANF is administered (1 μg/kg i.v. bolus) to all animals and arterial pressure and renal parameters are determined during two consecutive 15 minutes collection periods. Mean arterial pressure, urine flow and urinary sodium excretion are determined for all collection periods. Blood pressure is measured with a Gould p50 pressure transducer, urine flow is determined gravimetrically, sodium concentration is measured by flame photometry, and urinary sodium excretion is calculated as the product of urine flow and urine sodium concentration.

## CC(=O)SC[C@H]1CCCCCC[C@H](C(=O)N2C[C@H](O)C[C@H]2C(=O)OCc2ccccc2)NC1=O [N-[[trans 3-(acetylthiomethyl)-2-oxo-1-azacyclodecan-10-yl]-carbonyl]-trans-4-hydroxy-L-proline benzyl ester]
[1]
  reduction in blood pressure: significant reduction in blood pressure
[2]
  increase in plasma ANF levels: significant increases in plasma ANF levels
[3]
  potentiation of ANF-induced natriuresis: significant potentiation of ANF-induced natriuresis

Reference: patent US5426103A, “Certain macrocyclic lactam derivatives” (Ciba-Geigy Corporation, priority 1993, dated 1995)
